Here are results for seven compounds from publication PMC3989197, “A Novel Carbonyl Reductase with Anti-Prelog Stereospecificity from Acetobacter sp. CCTCC M209061: Purification and Characterization” (PLoS ONE, 2014).

Assay [1] relates to T1, AcCR (carbonyl reductase).
T1 construct: native purification from Acetobacter cells (ammonium sulfate, DEAE-Sepharose, Native-PAGE); homotetramer 104 kDa, subunit 27 kDa
Nature of the assay: spectrophotometric initial rate at […] nm. Type of assay: biochemical, Acetobacter sp. CCTCC M209061.

For assay [2], the system named is T1, AcCR (carbonyl reductase). Nature of the assay: spectrophotometric initial rate at […] nm; Hill fit. It is filed as biochemical, Acetobacter sp. CCTCC M209061. To be noted: NADH-linked reduction (NADH fixed 1 mM), pH 5.0, 25°C; sigmoidal, cooperative.
Assay [3] has as its target carbonyl reductase from Acetobacter sp. CCTCC M209061 (AcCR) (Acetobacter sp. CCTCC M209061). Description: SEC; gel permeation on Superdex G-200, 50 mM phosphate buffer pH 7.0 with 0.15 M NaCl, 0.2 ml/min, calibrated with mass markers; apparent native mass (104 kDa) compared with the subunit mass by SDS-PAGE (27 kDa).
Where [4] appears, read: oxidation of isopropanol (fixed 110 mM), pH 8.0, 35°C.

On to `CC(=O)c1ccc(Cl)cc1` [4′-chloroacetophenone], for which the Km is 2.96 ± 0.087 mM in assay [1] (NADPH-linked reduction (NADPH fixed 0.1 mM), pH 7.5, 25°C) and 4.13 ± 0.157 mM in assay [2].

For the compound `NC(=O)C1=CN([C@@H]2O[C@H](COP(=O)(O)OP(=O)(O)OC[C@H]3O[C@@H](n4cnc5c(N)ncnc54)[C@H](O)[C@@H]3O)[C@@H](O)[C@H]2O)C=CC1` [NADH], the Km in assay [1] (reduction of 4′-chloroacetophenone (fixed 5 mM), pH 5.0, 25°C) stood at 0.66 ± 0.021 mM.

On to `NC(=O)C1=CN([C@@H]2O[C@H](COP(=O)(O)OP(=O)(O)OC[C@H]3O[C@@H](n4cnc5c(N)ncnc54)[C@H](OP(=O)(O)O)[C@@H]3O)[C@@H](O)[C@H]2O)C=CC1` [NADPH], for which, in assay [1] (reduction of 4′-chloroacetophenone (fixed 5 mM), pH 7.5, 25°C), the Km was 0.026 ± 0.001 mM.

In the case of `NC(=O)c1ccc[n+]([C@@H]2O[C@H](COP(=O)(O)OP(=O)(O)OC[C@H]3O[C@@H](n4cnc5c(N)ncnc54)[C@H](OP(=O)(O)O)[C@@H]3O)[C@@H](O)[C@H]2O)c1` [NADP^+], in assay [1] (setting [4]), the Km turned out to be 1.12 ± 0.035 mM.

For the compound `NC(=O)c1ccc[n+]([C@@H]2O[C@H](COP(=O)(O)OP(=O)(O)OC[C@H]3O[C@@H](n4cnc5c(N)ncnc54)[C@H](O)[C@@H]3O)[C@@H](O)[C@H]2O)c1` [NAD^+], the Km in assay [1] (setting [4]) came out at 1.33 ± 0.045 mM.

Turning to `CC(C)O` [isopropanol], the Km in assay [1] (NAD+-linked oxidation (NAD+ fixed 5 mM), pH 8.0, 35°C) was determined as 48.3 ± 0.986 mM.

“carbonyl reductase from Acetobacter sp. CCTCC M209061 (AcCR) (enzyme)”: in assay [3], the stoichiometry N is 4.
